Biological target: human MC5R (Homo sapiens (Human), UniProt P33032)
Assay: Human MC5R radioligand binding assay ([125I] NDP-MSH displacement, membranes)
Details: not given
Procedure: Assessments of compound binding to human MC5R (hMC5R)) by displacement of an ^125I-labeled NDP-MSH receptor ligand peptide were performed essentially as described in the data sheets produced by Perkin Elmer to accompany their frozen hMC5R membranes (Perkin Elmer catalog number RBXMC5M400UA).
Na^125I (0.5 mCi, 17.4 Ci/mg) was added to 50 μL sodium phosphate (50 mM, pH 7.4) in an eppendorf tube precoated with IODOGEN. After incubation for 10 mins the phosphate buffer containing the iodine was added to NDP-MSH (10 ul at 1 mg/mL) in a separate eppendorf tube. This was incubated for a further 10 mins. The iodinated NDP-MSH was purified by HPLC on a Zorbax SB 300 column using solvent A: 0.05% TFA and solvent B: 90% acetonitrile 0.045% TFA with a linear gradient, 0-67% B over 60 mins.
Perkin Elmer frozen hMC5 membranes: catalog number RBXMC5M400UA, 0.4 mL/vial; 400 microassays/vial, 0.78 mg/mL protein concentration
Vials of frozen membranes were thawed rapidly immediately before use, diluted with binding buffer and vortexed. Resuspended membranes were kept on ice until they were added to the wells of the plate.
Assays were performed in 96 well polypropylene plates. […] This was incubated for 1 hr at 37° C.

Sequence of human MC5R (P33032 whole entry): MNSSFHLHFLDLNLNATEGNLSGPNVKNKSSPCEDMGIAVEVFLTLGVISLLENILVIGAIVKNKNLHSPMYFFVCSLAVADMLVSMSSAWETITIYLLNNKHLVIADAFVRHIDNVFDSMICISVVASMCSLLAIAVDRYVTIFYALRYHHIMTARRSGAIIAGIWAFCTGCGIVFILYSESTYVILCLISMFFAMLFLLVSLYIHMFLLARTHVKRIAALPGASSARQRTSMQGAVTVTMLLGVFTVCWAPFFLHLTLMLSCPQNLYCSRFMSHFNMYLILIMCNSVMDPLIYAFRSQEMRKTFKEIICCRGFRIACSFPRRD

IC50	SMILES
< 100 nM	CC[C@H](CN1CC[C@@H](CNC(=O)c2ccc3cc(Cl)ccc3c2)N[C@H](CCN2CCCCC2)C1=O)c1ccccc1 [Compound 582, 6-chloro-N-(((3R,5S)-2-oxo-1-((S)-2-phenylbutyl)-3-(2-(piperidin-1-yl)ethyl)-1,4-diazepan-5-yl)methyl)-2-naphthamide]
< 1000 nM	CC[C@H](CN1CC[C@@H](CNC(=O)Cc2ccc(Cl)cc2Cl)N[C@@H](CCN2CCCCC2)C1=O)c1ccccc1 [Compound 540, 2-(2,4-dichlorophenyl)-N-(((3S,5S)-2-oxo-1-((S)-2-phenylbutyl)-3-(2-(piperidin-1-yl)ethyl)-1,4-diazepan-5-yl)methyl)acetamide]
< 1000 nM	CC[C@@H](CN1CC[C@@H](CNC(=O)c2ccc3cc(Cl)ccc3c2)N[C@H](CCN2CCCCC2)C1=O)c1ccccc1 [Compound 584, 6-chloro-N-(((3R,5S)-2-oxo-1-((R)-2-phenylbutyl)-3-(2-(piperidin-1-yl)ethyl)-1,4-diazepan-5-yl)methyl)-2-naphthamide]

The next lines start with the molecule.

SMILES	IC50
O=C(NCC1CCN(CC(c2ccccc2)c2ccccc2)C(=O)C(CC2CCNCC2)N1)c1ccc2ccccc2c1 (racemic) [Compound 198, N-((1-(2,2-diphenylethyl)-2-oxo-3-(piperidin-4-ylmethyl)-1,4-diazepan-5-yl)methyl)-2-naphthamide]	< 1000 nM
O=C(NCC1CCN(CC(c2ccccc2)c2ccccc2)C(=O)C(C2CCNCC2)N1)c1ccc2ccccc2c1 (racemic) [Compound 197, N-((1-(2,2-diphenylethyl)-2-oxo-3-(piperidin-4-yl)-1,4-diazepan-5-yl)methyl)-2-naphthamide]	< 1000 nM

Same assay, conditions: hMC5R binding assay as in Example 102; compounds tested as trifluoroacetate or hydrochloride salts, or as free base

IC50	SMILES
< 1000 nM	Nc1ccccc1C[C@H]1C(=O)N(CC(c2ccccc2)c2ccccc2)CC[C@H]2CN(C(=O)/C=C/c3ccc(Cl)cc3)CN21 [Compound 453, (5S,9aS)-5-((2-aminobenzyl)-2-(E)-3-(4-chlorophenyl)acryloyl)-7-(2,2-diphenylethyl)hexahydro-1H-imidazo[1,5-d][1,4]diazepin-6(5H)-one]
< 1000 nM	NCC[C@@H]1N[C@H](CNC(=O)/C=C/c2ccccc2)CCN(CC(c2ccccc2)c2ccccc2)C1=O [Compound 282, N-(((3S,5S)-3-(2-aminoethyl)-1-(2,2-diphenylethyl)-2-oxo-1,4-diazepan-5-yl)methyl)cinnamamide]

More lines, now with the values behind:

SMILES	IC50
N=C(N)NCCC[C@@H]1N[C@H](CNC(=O)/C=C/c2ccccc2)CCN(CC(c2ccccc2)c2ccccc2)C1=O [Compound 153, N-(((3S,5S)-1-(2,2-diphenylethyl)-3-(3-guanidinopropyl)-2-oxo-1,4-diazepan-5-yl)methyl)cinnamamide]	< 100 nM
NCCC[C@@H]1N[C@H](CNC(=O)/C=C/c2ccccc2)CCN(CC(c2ccccc2)c2ccccc2)C1=O [Compound 213, N-(((3S,5S)-3-(3-aminopropyl)-1-(2,2-diphenylethyl)-2-oxo-1,4-diazepan-5-yl)methyl)cinnamamide]	< 1000 nM
O=C(/C=C/c1ccccc1)NC[C@@H]1CCN(CC(c2ccccc2)c2ccccc2)C(=O)[C@H](CCCN2CCCCC2)N1 [Compound 269, N-(((3S,5S)-1-(2,2-diphenylethyl)-2-oxo-3-(3-(piperidin-1-yl)propyl)-1,4-diazepan-5-yl)methyl)cinnamamide]	< 100 nM

Same assay, conditions: hMC5R binding assay as in Example 102; compounds tested as trifluoroacetate or hydrochloride salts, or free base

SMILES	IC50
O=C(NC[C@@H]1CCN(Cc2cc(Cl)cc(Cl)c2)C(=O)[C@H](CCN2CCOCC2)N1)c1ccc(Cl)c(Cl)c1 [Compound 556]	< 100 nM
O=C(NC[C@@H]1CCN(Cc2cc(Cl)cc(Cl)c2)C(=O)[C@H](CCN2CCOCC2)N1)c1ccc2cc(Cl)ccc2c1 [Compound 555]	< 100 nM
COc1ccc2cc(C(=O)NC[C@@H]3CCN(Cc4cc(Cl)cc(Cl)c4)C(=O)[C@H](CCN4CCCCC4)N3)ccc2c1 [Compound 568]	< 100 nM

Test system: not given
Assay: not given
Details: oral, after 8-12 weeks of therapy; cited from earlier work

SMILES	reduction of sebum excretion
CC1=C(/C=C/C(C)=C/C=C/C(C)=C\C(=O)O)C(C)(C)CCC1 [isotretinoin, 13-cis-retinoic acid]	up to 90%

Same assay, conditions: oral, by 2 weeks; cited from earlier work

SMILES	reduction of sebum excretion
CC1=C(/C=C/C(C)=C/C=C/C(C)=C\C(=O)O)C(C)(C)CCC1 [isotretinoin, 13-cis-retinoic acid]	60-70%

Source: patent publication US9340517B2, “Methods of modulating the activity of the MC5 receptor and treatment of conditions related to this receptor” (Mimetica PTY LTD, priority 2008, dated 2016)
